According to ChEMBL document CHEMBL4196010, “New hydrazides derivatives of isoniazid against Mycobacterium tuberculosis: Higher potency and lower hepatocytotoxicity” (Eur J Med Chem, 2018):
≈ marks a conversion by molar mass, not a printed value.

tested on: Mycobacterium tuberculosis; assay: Antitubercular activity against Mycobacterium tuberculosis SR 2571/0215 harboring katG mutant after 5 days by microplate alamar blue assay; type: functional

| Compound | MIC [µM] |
| --- | --- |
| CC(=O)Nc1ccccc1C(=O)C(=O)NNC(=O)c1ccncc1 | 38.3 (≈ 12.5 µg/mL) |
| CC(=O)Nc1ccccc1C(F)(F)C(=O)NNC(=O)c1ccncc1 | 287.4 (≈ 100 µg/mL) |
| O=C(CCl)Nc1ccccc1C(=O)C(=O)NNC(=O)c1ccncc1 | 69.4 (≈ 25 µg/mL) |
| CC(=O)Nc1ccc(C)cc1C(F)(F)C(=O)NNC(=O)c1ccncc1 | >276.2 |
| CC(=O)Nc1ccc(C)cc1C(=O)C(=O)NNC(=O)c1ccncc1 | 36.7 (≈ 12.5 µg/mL) |
| NNC(=O)c1ccncc1 [ISONIAZID] | 116.8 (≈ 16 µg/mL) |

tested on: Mycobacterium tuberculosis; assay: Antitubercular activity against wild-type isoniazid-resistant Mycobacterium tuberculosis harboring katG mutant after 5 days by microplate alamar blue assay; type: functional

| Compound | MIC [µM] |
| --- | --- |
| CC(=O)Nc1ccc(Cl)cc1C(F)(F)C(=O)NNC(=O)c1ccncc1 | 136.6 (≈ 52.3 µg/mL) |
| CC(=O)Nc1ccccc1C(=O)C(=O)NNC(=O)c1ccncc1 | 19.2 (≈ 6.27 µg/mL) |
| CC(=O)Nc1ccccc1C(F)(F)C(=O)NNC(=O)c1ccncc1 | 143.7 (≈ 50.1 µg/mL) |
| CC(=O)Nc1ccc(F)cc1C(F)(F)C(=O)NNC(=O)c1ccncc1 | 130.9 (≈ 47.9 µg/mL) |
| CC(=O)Nc1ccc(C)cc1C(F)(F)C(=O)NNC(=O)c1ccncc1 | 138.1 (≈ 50 µg/mL) |
| NNC(=O)c1ccncc1 [ISONIAZID] | >80 |

tested on: Mycobacterium tuberculosis; assay: Antitubercular activity against isoniazid and rifampicin-resistant Mycobacterium tuberculosis T113/09 harboring katG and rpoB mutant after 5 days by microplate alamar blue assay; type: functional

| Compound | MIC [µM] |
| --- | --- |
| CC(=O)Nc1ccccc1C(=O)C(=O)NNC(=O)c1ccncc1 | 38.3 (≈ 12.5 µg/mL) |
| CC(=O)Nc1ccccc1C(F)(F)C(=O)NNC(=O)c1ccncc1 | 287.4 (≈ 100 µg/mL) |
| O=C(CCl)Nc1ccccc1C(=O)C(=O)NNC(=O)c1ccncc1 | 34.7 (≈ 12.5 µg/mL) |
| CC(=O)Nc1ccc(C)cc1C(F)(F)C(=O)NNC(=O)c1ccncc1 | 276.2 (≈ 100 µg/mL) |
| CC(=O)Nc1ccc(C)cc1C(=O)C(=O)NNC(=O)c1ccncc1 | 36.7 (≈ 12.5 µg/mL) |
| NNC(=O)c1ccncc1 [ISONIAZID] | 58.4 (≈ 8.01 µg/mL) |
